{"source": "patent US20220289794A1", "about": "“SYNTHETIC ANTIMICROBIAL PEPTIDES” (priority 2019, published 2022)", "key": {"[1]": {"tested_on": "Enterococcus faecium ATCC 700221", "details": "E. faecium ATCC 700221"}, "[2]": {"tested_on": "Pseudomonas aeruginosa (ATCC 27883)"}, "[3]": {"tested_on": "P. aeruginosa (ATCC BAA-1744)", "assay": "Broad-spectrum activity against Gram-Negative bacteria (MIC)", "type": "cell-based", "details": "Table 16, Gram-negative panel"}, "[4]": {"tested_on": "Enterococcus faecalis ATCC 51575", "details": "E. faecalis ATCC 51575"}, "[5]": {"tested_on": "Enterococcus faecalis ATCC 29212", "details": "E. faecalis ATCC 29212"}, "[6]": {"tested_on": "B. cereus (ATCC-13061)", "assay": "Broad-spectrum activity against Gram-Positive bacteria (MIC)", "type": "cell-based", "parameters": "unit not given here"}, "[7]": {"tested_on": "Enterococcus faecium ATCC 27270", "details": "E. faecium ATCC 27270"}, "[8]": {"tested_on": "Methicillin-resistant Staphylococcus aureus MRSA (ATCC BAA-1556)"}, "[9]": {"tested_on": "human red blood cells", "parameters": "unit not given beside the values"}, "[10]": {"tested_on": "S. aureus ATCC 29213"}, "[11]": {"tested_on": "A. baumannii (ATCC BAA-1605)", "assay": "Broad-spectrum activity against Gram-Negative bacteria (MIC)", "type": "cell-based", "details": "Table 16, Gram-negative panel"}, "[12]": {"tested_on": "B. subtilis (ATCC-6633)", "assay": "Broad-spectrum activity against Gram-Positive bacteria (MIC)", "type": "cell-based", "parameters": "unit not given here"}, "[13]": {"tested_on": "Klebsiella pneumoniae (ATCC BAA-1705)", "details": "Table 16, Gram-negative panel"}, "[14]": {"tested_on": "Streptococcus pneumoniae ATCC 51938", "details": "S. pneumoniae ATCC 51938"}, "[15]": {"tested_on": "Streptococcus pneumoniae ATCC 49619", "details": "S. pneumoniae ATCC 49619"}, "[16]": {"tested_on": "P. aeruginosa (ATCC 10145)", "assay": "Broad-spectrum activity against Gram-Negative bacteria (MIC)", "type": "cell-based", "details": "Table 16, Gram-negative panel"}, "[17]": {"tested_on": "Klebsiella pneumoniae ATCC 13883", "details": "Table 16, Gram-negative panel"}, "[18]": {"tested_on": "Escherichia coli (ATCC 25922)"}, "[19]": {"tested_on": "E. coli (ATCC BAA-2452)", "assay": "Broad-spectrum activity against Gram-Negative bacteria (MIC)", "type": "cell-based", "details": "Table 16, Gram-negative panel"}}, "note": "Like-named read-outs stand apart in the source and are kept apart here. Non-standard residues stand in square brackets, D forms with d. Residues, ends and D or L forms follow the SMILES beside them. Dip = N[C@H](C(=O)O)C(c1ccccc1)c1ccccc1"}
{"compound": "N=C(N)NCCC[C@@H]1NC(=O)[C@H](CCCNC(=N)N)NC(=O)[C@H](C(c2ccccc2)c2ccccc2)NC(=O)[C@H](C(c2ccccc2)c2ccccc2)NC(=O)[C@H](CCCNC(=N)N)NC(=O)[C@H](CCCNC(=N)N)NC(=O)[C@H](C(c2ccccc2)c2ccccc2)NC1=O", "note": "[IFX-016, c[Arg-Dip-Arg-Arg-Dip-Dip-Arg]] (cyclo(R[Dip]RR[Dip][Dip]R))", "values": [{"measurement": "Broad-spectrum activity E. faecium (ATCC 700221)", "setting": "[1]", "result": 1.5}, {"measurement": "MIC P. aeruginosa ATCC 27883", "setting": "[2]; ATCC 27883", "result": 50, "unit": "µg/mL"}, {"measurement": "MIC P. aeruginosa (ATCC BAA-1744)", "setting": "[3]", "result": 12.5, "unit": "µg/mL"}, {"measurement": "Broad-spectrum activity E. faecalis (ATCC 51575)", "setting": "[4]", "result": 12.5}, {"measurement": "Broad-spectrum activity E. faecalis (ATCC 29212)", "setting": "[5]", "result": 6.2}, {"measurement": "Broad-spectrum activity B. cereus (ATCC-13061)", "setting": "[6]", "result": 6.2}, {"measurement": "Broad-spectrum activity E. faecium (ATCC 27270)", "setting": "[7]", "result": 3.1}, {"measurement": "MIC MRSA ATCC BAA-1556", "setting": "[8]; ATCC BAA-1556", "result": 6.2, "unit": "µg/mL"}, {"measurement": "HC50", "setting": "[9]", "result": 310}, {"measurement": "MIC S. aureus ATCC 29213", "setting": "[10]; ATCC 29213", "result": 6.2, "unit": "µg/mL"}, {"measurement": "MIC A. baumannii (ATCC BAA-1605)", "setting": "[11]", "result": 12.5, "unit": "µg/mL"}, {"measurement": "Broad-spectrum activity B. subtilis (ATCC-6633)", "setting": "[12]", "result": 1.5}, {"measurement": "MIC K. pneumonia (ATCC BAA-1705)", "setting": "[13]", "result": 25, "unit": "µg/mL"}, {"measurement": "Broad-spectrum activity S. pneumoniae (ATCC 51938)", "setting": "[14]", "result": 12.5}, {"measurement": "Broad-spectrum activity S. pneumoniae (ATCC 49619)", "setting": "[15]", "result": 25}, {"measurement": "MIC P. aeruginosa (ATCC 10145)", "setting": "[16]", "result": 25, "unit": "µg/mL"}, {"measurement": "MIC K. pneumonia (ATCC 13883)", "setting": "[17]", "result": 50, "unit": "µg/mL"}, {"measurement": "MIC E. coli ATCC 25922", "setting": "[18]; ATCC 25922", "result": ">100", "unit": "µg/mL"}, {"measurement": "MIC E. coli (ATCC BAA-2452)", "setting": "[19]", "result": 12.5, "unit": "µg/mL"}]}
{"compound": "N=C(N)NCCC[C@@H]1NC(=O)[C@H](CCCNC(=N)N)NC(=O)[C@H](C(c2ccccc2)c2ccccc2)NC(=O)[C@H](Cc2c[nH]c3ccccc23)NC(=O)[C@H](C(c2ccccc2)c2ccccc2)NC(=O)[C@H](CCCNC(=N)N)NC1=O", "note": "[IFX-021, c[Arg-Arg-Arg-Dip-Trp-Dip]] (cyclo([Dip]RRR[Dip]W))", "values": [{"measurement": "Broad-spectrum activity E. faecium (ATCC 700221)", "setting": "[1]", "result": 3.1}, {"measurement": "MIC P. aeruginosa (ATCC BAA-1744)", "setting": "[3]", "result": 25, "unit": "µg/mL"}, {"measurement": "Broad-spectrum activity E. faecalis (ATCC 51575)", "setting": "[4]", "result": 12.5}, {"measurement": "Broad-spectrum activity E. faecalis (ATCC 29212)", "setting": "[5]", "result": 12.5}, {"measurement": "Broad-spectrum activity B. cereus (ATCC-13061)", "setting": "[6]", "result": 6.2}, {"measurement": "Broad-spectrum activity E. faecium (ATCC 27270)", "setting": "[7]", "result": 6.2}, {"measurement": "HC50", "setting": "[9]", "result": 260}, {"measurement": "MIC A. baumannii (ATCC BAA-1605)", "setting": "[11]", "result": 25, "unit": "µg/mL"}, {"measurement": "Broad-spectrum activity B. subtilis (ATCC-6633)", "setting": "[12]", "result": 3.1}, {"measurement": "MIC K. pneumonia (ATCC BAA-1705)", "setting": "[13]", "result": 12.5, "unit": "µg/mL"}, {"measurement": "Broad-spectrum activity S. pneumoniae (ATCC 51938)", "setting": "[14]", "result": 25}, {"measurement": "Broad-spectrum activity S. pneumoniae (ATCC 49619)", "setting": "[15]", "result": 50}, {"measurement": "MIC P. aeruginosa (ATCC 10145)", "setting": "[16]", "result": 50, "unit": "µg/mL"}, {"measurement": "MIC K. pneumonia (ATCC 13883)", "setting": "[17]", "result": "> 50", "unit": "µg/mL"}, {"measurement": "MIC E. coli (ATCC BAA-2452)", "setting": "[19]", "result": 12.5, "unit": "µg/mL"}]}
{"compound": "c[arg-Arg-arg-Arg-dip-Trp-dip] [IFX-096]", "values": [{"measurement": "Broad-spectrum activity E. faecium (ATCC 700221)", "setting": "[1]", "result": 6.2}, {"measurement": "MIC P. aeruginosa ATCC 27883", "setting": "[2]; P. aeruginosa ATCC 27883", "result": 6.2, "unit": "µg/mL"}, {"measurement": "MIC P. aeruginosa (ATCC BAA-1744)", "setting": "[3]", "result": 50, "unit": "µg/mL"}, {"measurement": "Broad-spectrum activity E. faecalis (ATCC 51575)", "setting": "[4]", "result": 12.5}, {"measurement": "Broad-spectrum activity E. faecalis (ATCC 29212)", "setting": "[5]", "result": 12.5}, {"measurement": "Broad-spectrum activity B. cereus (ATCC-13061)", "setting": "[6]", "result": 6.2}, {"measurement": "Broad-spectrum activity E. faecium (ATCC 27270)", "setting": "[7]", "result": 3.1}, {"measurement": "MIC MRSA ATCC BAA-1556", "setting": "[8]; MRSA ATCC BAA-1556", "result": 3.1, "unit": "µg/mL"}, {"measurement": "MIC S. aureus ATCC 29213", "setting": "[10]; S. aureus ATCC 29213", "result": 3.1, "unit": "µg/mL"}, {"measurement": "MIC A. baumannii (ATCC BAA-1605)", "setting": "[11]", "result": 25, "unit": "µg/mL"}, {"measurement": "Broad-spectrum activity B. subtilis (ATCC-6633)", "setting": "[12]", "result": 3.1}, {"measurement": "MIC K. pneumonia (ATCC BAA-1705)", "setting": "[13]", "result": 25, "unit": "µg/mL"}, {"measurement": "Broad-spectrum activity S. pneumoniae (ATCC 51938)", "setting": "[14]", "result": 25}, {"measurement": "Broad-spectrum activity S. pneumoniae (ATCC 49619)", "setting": "[15]", "result": 25}, {"measurement": "MIC P. aeruginosa (ATCC 10145)", "setting": "[16]", "result": 50, "unit": "µg/mL"}, {"measurement": "MIC K. pneumonia (ATCC 13883)", "setting": "[17]", "result": 50, "unit": "µg/mL"}, {"measurement": "MIC E. coli ATCC 25922", "setting": "[18]; E. coli ATCC 25922", "result": 6.2, "unit": "µg/mL"}, {"measurement": "MIC E. coli (ATCC BAA-2452)", "setting": "[19]", "result": 12.5, "unit": "µg/mL"}]}
